In article PMC5736629, “Allosteric modulation of protein-protein interactions by individual lipid binding events” (Nature Communications, 2017):
Read-outs that look alike come from different tables or passages of the source.

What was measured:
GlnK = target: GlnK; design: method as in earlier work; conditions: 298K, absence of detergent, ref 2 (supplement), cited from earlier work
AmtB–GlnK complex = target: T1, AmtB–GlnK complex (Escherichia coli, UniProt P69681); test: Native MS lipid titration, lipid binding to AmtB–GlnK (equilibrium-coupled binding model); conditions: 50 µM ADP, 298 K
T1 construct: pelB signal peptide (N, cleaved yes); 10x His-tag (N, cleaved yes); made in house; host or cells: AmtB: Escherichia coli C41(DE3), pET15b; stGlnK: Escherichia coli ArcticExpress (DE3) RIL, pET28b
Experimental: (§1) A stock of ADP was prepared by dissolving the ammonium salt form of ADP in water followed by adjusting the pH with ammonium hydroxide to 7.0. Serial dilutions into MS buffer (200 mM ammonium acetate, 0.5% C8E4, and pH adjusted to 7.4 with ammonium hydroxide) supplemented with 5 mM BME was performed to prepare ADP at certain concentrations. Phospholipids were prepared as previously described. In brief, stock solutions of each phospholipid were resuspended in chloroform, aliqouted, and chloroform was removed by a steady stream on nitrogen gas. Lipid films were placed under vacuum overnight to prepare to resuspend in MS buffer supplemented with 5 mM 2-mercaptoethanol. Phospholipid concentration was determined by phosphorus analysis.

AmtB = target: T2, AmtB (Escherichia coli, UniProt P69681); test: Native MS lipid titration, lipid binding to AmtB (equilibrium-coupled binding model); conditions: 50 µM ADP, 298 K
T2 construct: pelB signal peptide (N, cleaved yes); 10x His-tag (N, cleaved yes); made in house; host or cells: Escherichia coli C41(DE3), pET15b
Experimental: as §1

AmtB–GlnK interaction = target: T3, AmtB–GlnK interaction (Escherichia coli, UniProt P69681); test: Native MS lipid titration, GlnK binding to apo or lipid-bound AmtB; coupling factors (allosteric modulation); conditions: for Kd: 50 µM ADP, 298 K; for Coupling factor a1: first bound lipid; for Coupling factor a2: second bound lipid; for Coupling factor a3: third bound lipid; for allosteric modulation of AmtB–GlnK (from coupling factors): result in words
T3 construct: pelB signal peptide (N, cleaved yes); 10x His-tag (N, cleaved yes); made in house; host or cells: AmtB: Escherichia coli C41(DE3), pET15b; stGlnK: Escherichia coli ArcticExpress (DE3) RIL, pET28b
Experimental: as §1

[1] = KD,AGL1, first lipid binding to AmtB–GlnK
[2] = KD,AGL2, second lipid binding to AmtB–GlnK
[3] = KD,AGL3, third lipid binding to AmtB–GlnK
[4] = KD,AL1, first lipid binding to AmtB
[5] = KD,AL2, second lipid binding to AmtB
[6] = KD,AL3, third lipid binding to AmtB
[7] = KD,AG, GlnK binding apo AmtB, from global fit of the titration with the named lipid
[8] = KD,AL2G, GlnK binding AmtB bound to 2 lipids
[9] = KD,AL3G, GlnK binding AmtB bound to 3 lipids
[10] = KD,ALG, GlnK binding AmtB bound to 1 lipid

T3 sequence (P0AC55 whole entry Y51F): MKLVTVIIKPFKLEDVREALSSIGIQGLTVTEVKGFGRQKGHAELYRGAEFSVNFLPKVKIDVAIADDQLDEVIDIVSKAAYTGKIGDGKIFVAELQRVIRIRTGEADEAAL
T3 sequence (P69681 23-428): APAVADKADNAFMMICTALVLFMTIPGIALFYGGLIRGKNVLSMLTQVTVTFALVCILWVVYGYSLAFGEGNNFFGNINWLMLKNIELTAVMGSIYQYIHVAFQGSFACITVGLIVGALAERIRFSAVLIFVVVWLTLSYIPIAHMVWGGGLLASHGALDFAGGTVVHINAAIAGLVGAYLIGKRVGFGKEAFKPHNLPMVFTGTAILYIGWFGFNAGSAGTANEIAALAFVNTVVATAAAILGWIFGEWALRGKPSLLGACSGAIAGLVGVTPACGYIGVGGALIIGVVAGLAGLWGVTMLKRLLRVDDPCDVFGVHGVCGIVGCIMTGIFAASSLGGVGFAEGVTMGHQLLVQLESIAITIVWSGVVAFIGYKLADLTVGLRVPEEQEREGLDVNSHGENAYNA
T1 sequence (P0AC55 whole entry Y51F): as the sequence (P0AC55 whole entry Y51F) above
T1 sequence (P69681 23-428): as the sequence (P69681 23-428) above
T2 sequence (P69681 23-428): as above

Compound | Kd (GlnK; read-out: KD for GlnK binding the first ADP molecule) | Kd (GlnK; read-out: KD for GlnK binding the second ADP molecule) | Kd (GlnK; read-out: KD for GlnK binding the third ADP molecule) | Kd (AmtB–GlnK complex; [1]) | Kd (AmtB–GlnK complex; [2]) | Kd (AmtB–GlnK complex; [3]) | Kd (AmtB; [4]) | Kd (AmtB; [5]) | Kd (AmtB; [6]) | Kd (AmtB–GlnK interaction; [7]) | Kd (AmtB–GlnK interaction; [8]) | Kd (AmtB–GlnK interaction; [9]) | Kd (AmtB–GlnK interaction; [10]) | Coupling factor a1 (AmtB–GlnK interaction) | Coupling factor a2 (AmtB–GlnK interaction) | Coupling factor a3 (AmtB–GlnK interaction) | allosteric modulation of AmtB–GlnK (from coupling factors) (AmtB–GlnK interaction)
Nc1ncnc2c1ncn2[C@@H]1O[C@H](COP(=O)(O)OP(=O)(O)O)[C@@H](O)[C@H]1O [ADP, adenosine diphosphate] | 20 µM | 56 µM | 100 µM | – | – | – | – | – | – | – | – | – | – | – | – | – | –
CCCCCCCCCCCC(=O)OC[C@H](COP(=O)(O)OCC(O)CO)OC(=O)CCCCCCCCCCC (stereo partly shown) [DLPG] | – | – | – | 17.1 ± 1.96 µM | 28.6 ± 3.98 µM | 29.1 ± 2.27 µM | 22.5 ± 3.23 µM | 39.1 ± 9.25 µM | 34.03 ± 0.15 µM | 0.522 ± 0.0258 µM | 0.313 ± 0.0435 µM | 0.271 ± 0.0539 µM | 0.401 ± 0.0148 µM | 1.30 ± 0.04 | 1.35 ± 0.26 | 1.19 ± 0.15 | –
CCCCCCCCCCCCCC(=O)OC[C@H](COP(=O)(O)OCC(O)CO)OC(=O)CCCCCCCCCCCCC (stereo partly shown) [DMPG] | – | – | – | 6.92 ± 0.33 µM | 14.1 ± 0.35 µM | 19.6 ± 0.33 µM | 6.78 ± 0.19 µM | 14.6 ± 1.2 µM | 20.27 ± 0.12 µM | 0.551 ± 0.0134 µM | 0.543 ± 0.0387 µM | 0.523 ± 0.0284 µM | 0.561 ± 0.0235 µM | 0.99 ± 0.05 | 1.04 ± 0.04 | 1.04 ± 0.02 | neutral allosteric modulation
CCCCCCCC/C=C\CCCCCCCC(=O)OC[C@H](COP(=O)(O)OCCN)OC(=O)CCCCCCC/C=C\CCCCCCCC [DOPE (cis)] | – | – | – | 12.3 ± 0.39 µM | 27.6 ± 1.09 µM | 32.9 ± 2.11 µM | 15.1 ± 0.63 µM | 36.9 ± 2.85 µM | 57.6 ± 13.3 µM | 0.517 ± 0.0504 µM | 0.315 ± 0.0269 µM | 0.206 ± 0.0621 µM | 0.421 ± 0.0375 µM | 1.23 ± 0.02 | 1.34 ± 0.10 | 1.71 ± 0.31 | –
CCCCCCCC/C=C/CCCCCCCC(=O)OC[C@H](COP(=O)(O)OCCN)OC(=O)CCCCCCC/C=C/CCCCCCCC [DOPE (trans)] | – | – | – | 19 ± 0.42 µM | 46 µM | – | 29.7 ± 2.18 µM | 159 ± 57.3 µM | – | 0.556 ± 0.0327 µM | 0.121 ± 0.0256 µM | – | 0.356 ± 0.0141 µM | 1.57 ± 0.14 | 3.29 ± 0.82 | 5.28 ± 1.82 | greater positive allosteric modulation
CCCCCCCCCCCCCCCC(=O)OC[C@H](COP(=O)(O)OCC(O)CO)OC(=O)CCCCCCCCCCCCCCC (stereo partly shown) [DPPG] | – | – | – | 14.8 ± 0.64 µM | 31.7 ± 1.89 µM | 53.4 ± 16.6 µM | 18.5 ± 1.85 µM | 63.8 ± 13.2 µM | 99.8 ± 45.3 µM | 0.521 ± 0.0158 µM | 0.23 ± 0.0559 µM | 0.164 ± 0.0721 µM | 0.424 ± 0.0361 µM | 1.25 ± 0.10 | 1.98 ± 0.32 | 1.66 ± 0.33 | –
